Assay in all cases: DSF 100 kinase selectivity screen;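 as to dTm: compound tested at 20 µM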
What all share (type): binding

The target of experiment [1] is T1, ~100 representative kinases (Homo sapiens, UniProt P17948).
T1 construct: Recombinant protein kinase domains with a concentration of 2 μM
To be noted: protein FLT1; average of three replicates. The procedure: (§1) Recombinant protein kinase domains with a concentration of 2 μM were mixed with a 20 μM compound solution in dimethyl sulfoxide (DMSO), 20 mM Hepes (pH 7.5), and 500 mM NaCl. SYPRO Orange (5000×, Invitrogen) was added as a fluorescence probe (1μl/ml). Subsequently, temperature-dependent protein unfolding profiles were measured using the QuantStudio 5 realtime PCR machine (Thermo Fisher Scientific, Waltham, MA, USA). […] The temperature was raised with a step rate of 3°C/min. […] Differences in melting temperature are given as ΔTm values in degrees Celsius. […]

Experiment [2] has as its target T2, ~100 representative kinases (Homo sapiens, UniProt P24941).
T2 construct: Recombinant protein kinase domains with a concentration of 2 μM
The note with it: Protein CDK2; average of three replicates. On the procedure:
as §1

The target in experiment [3] is T3, ~100 representative kinases (Homo sapiens, UniProt P49674).
T3 construct: Recombinant protein kinase domains with a concentration of 2 μM
The note with it: Protein CSNK1E; average of three replicates. The procedure: as §1

In experiment [4] the target is T4, ~100 representative kinases (Homo sapiens, UniProt P51813).
T4 construct: Recombinant protein kinase domains with a concentration of 2 μM
T4 sequence (P51813 1-675): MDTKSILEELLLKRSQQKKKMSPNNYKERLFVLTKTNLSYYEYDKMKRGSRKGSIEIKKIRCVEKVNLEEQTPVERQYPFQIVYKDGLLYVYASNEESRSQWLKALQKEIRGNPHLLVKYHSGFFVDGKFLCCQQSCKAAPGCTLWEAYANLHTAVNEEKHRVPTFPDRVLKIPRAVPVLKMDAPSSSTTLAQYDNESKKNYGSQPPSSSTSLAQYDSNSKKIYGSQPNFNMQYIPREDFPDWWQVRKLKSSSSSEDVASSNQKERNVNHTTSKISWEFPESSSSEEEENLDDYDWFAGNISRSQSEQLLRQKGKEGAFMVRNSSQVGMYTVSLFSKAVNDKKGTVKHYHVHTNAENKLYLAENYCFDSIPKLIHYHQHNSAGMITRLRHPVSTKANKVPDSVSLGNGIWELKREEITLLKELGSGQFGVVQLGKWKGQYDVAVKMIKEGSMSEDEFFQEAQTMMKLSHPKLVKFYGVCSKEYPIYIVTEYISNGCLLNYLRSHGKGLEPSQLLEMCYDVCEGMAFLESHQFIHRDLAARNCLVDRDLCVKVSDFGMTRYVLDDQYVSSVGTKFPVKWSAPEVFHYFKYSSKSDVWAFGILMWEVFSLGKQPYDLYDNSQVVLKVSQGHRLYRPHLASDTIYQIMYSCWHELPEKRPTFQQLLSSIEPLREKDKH
The note with it: Protein BMX; average of three replicates. The procedure: as §1

Experiment [5] deals with T5, ~100 representative kinases (Homo sapiens, UniProt Q13554).
T5 construct: Recombinant protein kinase domains with a concentration of 2 μM
To be noted: Protein CAMK2B; average of three replicates. The procedure:
as §1

For experiment [6], the target named is T6, ~100 representative kinases (Homo sapiens, UniProt Q13627).
T6 construct: Recombinant protein kinase domains with a concentration of 2 μM
The note with it: Protein DYRK1A; average of three replicates. The procedure: as §1

Experiment [7] has as its target T7, ~100 representative kinases (Homo sapiens, UniProt Q92630).
T7 construct: Recombinant protein kinase domains with a concentration of 2 μM
T7 sequence (Q92630 1-601): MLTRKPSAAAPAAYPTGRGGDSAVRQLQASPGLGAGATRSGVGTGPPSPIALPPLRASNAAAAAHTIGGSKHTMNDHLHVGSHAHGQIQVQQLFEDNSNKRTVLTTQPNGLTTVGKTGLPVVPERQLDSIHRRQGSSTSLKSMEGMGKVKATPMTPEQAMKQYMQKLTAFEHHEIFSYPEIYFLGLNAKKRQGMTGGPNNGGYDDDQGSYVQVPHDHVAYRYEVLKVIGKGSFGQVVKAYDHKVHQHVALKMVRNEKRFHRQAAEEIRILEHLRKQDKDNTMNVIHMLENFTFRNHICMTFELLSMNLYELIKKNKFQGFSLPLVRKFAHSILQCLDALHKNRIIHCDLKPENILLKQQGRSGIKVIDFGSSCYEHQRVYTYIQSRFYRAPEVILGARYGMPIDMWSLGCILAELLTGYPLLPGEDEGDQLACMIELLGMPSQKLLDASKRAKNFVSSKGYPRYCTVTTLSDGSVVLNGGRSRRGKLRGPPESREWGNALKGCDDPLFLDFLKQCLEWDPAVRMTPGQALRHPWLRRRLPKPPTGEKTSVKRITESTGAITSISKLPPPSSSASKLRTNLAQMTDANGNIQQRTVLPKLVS
To be noted: Protein DYRK2; average of three replicates. The procedure: as §1

Experiment [8] has as its target T8, ~100 representative kinases (Homo sapiens, UniProt Q99640).
T8 construct: Recombinant protein kinase domains with a concentration of 2 μM
T8 sequence (Q99640 1-499): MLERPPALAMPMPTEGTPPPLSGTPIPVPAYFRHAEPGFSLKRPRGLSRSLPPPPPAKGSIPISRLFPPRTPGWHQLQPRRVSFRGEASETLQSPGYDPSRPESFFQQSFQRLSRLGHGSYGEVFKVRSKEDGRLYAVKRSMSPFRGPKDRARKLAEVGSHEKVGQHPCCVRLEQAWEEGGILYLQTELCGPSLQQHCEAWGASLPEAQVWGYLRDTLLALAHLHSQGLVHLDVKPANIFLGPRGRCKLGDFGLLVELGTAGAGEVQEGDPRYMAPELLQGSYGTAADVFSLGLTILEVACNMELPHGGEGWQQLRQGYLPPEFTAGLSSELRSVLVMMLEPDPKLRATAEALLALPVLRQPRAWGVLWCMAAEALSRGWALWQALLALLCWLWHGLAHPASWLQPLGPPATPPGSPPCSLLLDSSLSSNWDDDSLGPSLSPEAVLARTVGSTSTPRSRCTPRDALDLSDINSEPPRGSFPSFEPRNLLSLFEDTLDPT
To be noted: protein PKMYT1; average of three replicates. The procedure:
as §1

The target of experiment [9] is T9, ~100 representative kinases (Homo sapiens, UniProt Q9H4A3).
T9 construct: Recombinant protein kinase domains with a concentration of 2 μM
To be noted: Protein WNK1; DSF; average of three replicates. On the procedure:
as §1

The target of experiment [10] is T10, ~100 representative kinases (Homo sapiens, UniProt Q9NSY1).
T10 construct: Recombinant protein kinase domains with a concentration of 2 μM
The note with it: Protein BMP2K; average of three replicates. The procedure:
as §1

Experiment [11] has as its target T11, ~100 representative kinases (Homo sapiens, UniProt Q9UPE1).
T11 construct: Recombinant protein kinase domains with a concentration of 2 μM
The note with it: Protein SRPK3; DSF; average of three replicates. On the procedure: as §1

Experiment [12] deals with T12, ~100 representative kinases (Homo sapiens, UniProt Q9Y2H1).
T12 construct: Recombinant protein kinase domains with a concentration of 2 μM
To be noted: Protein STK38L; DSF; average of three replicates. On the procedure:
as §1

Experiment [13] relates to ~100 representative kinases. The note with it: for dTm: Protein BRD, average of three replicates; for # >5K: number of proteins of the DSF panel with dTm >5K. The procedure: as §1
Where [14] appears, read: number of kinases with thermal shift >5 K divided by total number of kinases screened.
[15] abbreviates: selectivity score: # >5K divided by # of proteins tested in the DSF panel.

Molecules are shown by their SMILES.

T12 sequence (Q9Y2H1 whole entry, the tested form may be a part): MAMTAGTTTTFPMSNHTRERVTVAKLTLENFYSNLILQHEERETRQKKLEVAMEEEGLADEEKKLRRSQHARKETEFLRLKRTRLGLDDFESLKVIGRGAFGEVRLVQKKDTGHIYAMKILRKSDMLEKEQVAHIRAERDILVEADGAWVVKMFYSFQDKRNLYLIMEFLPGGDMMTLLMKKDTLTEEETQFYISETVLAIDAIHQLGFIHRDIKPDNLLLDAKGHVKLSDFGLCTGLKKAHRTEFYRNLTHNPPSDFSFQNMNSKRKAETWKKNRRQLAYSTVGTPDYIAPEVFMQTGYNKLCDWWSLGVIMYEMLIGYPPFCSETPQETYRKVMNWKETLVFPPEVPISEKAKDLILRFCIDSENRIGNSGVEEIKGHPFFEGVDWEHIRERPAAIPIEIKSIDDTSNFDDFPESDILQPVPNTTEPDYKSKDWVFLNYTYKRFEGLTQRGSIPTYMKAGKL
T3 sequence (P49674 whole entry, the tested form may be a part): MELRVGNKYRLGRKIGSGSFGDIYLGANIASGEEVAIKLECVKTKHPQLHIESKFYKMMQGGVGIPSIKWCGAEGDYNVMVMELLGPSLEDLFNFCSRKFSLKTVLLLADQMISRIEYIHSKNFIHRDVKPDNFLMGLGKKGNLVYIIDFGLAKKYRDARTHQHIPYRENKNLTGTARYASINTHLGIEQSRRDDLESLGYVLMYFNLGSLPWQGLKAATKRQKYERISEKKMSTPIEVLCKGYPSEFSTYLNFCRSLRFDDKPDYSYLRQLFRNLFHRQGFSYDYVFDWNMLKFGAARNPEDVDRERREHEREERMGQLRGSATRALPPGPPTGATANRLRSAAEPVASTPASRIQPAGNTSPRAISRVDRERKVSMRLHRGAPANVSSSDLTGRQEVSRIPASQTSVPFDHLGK
T1 sequence (P17948 27-1338): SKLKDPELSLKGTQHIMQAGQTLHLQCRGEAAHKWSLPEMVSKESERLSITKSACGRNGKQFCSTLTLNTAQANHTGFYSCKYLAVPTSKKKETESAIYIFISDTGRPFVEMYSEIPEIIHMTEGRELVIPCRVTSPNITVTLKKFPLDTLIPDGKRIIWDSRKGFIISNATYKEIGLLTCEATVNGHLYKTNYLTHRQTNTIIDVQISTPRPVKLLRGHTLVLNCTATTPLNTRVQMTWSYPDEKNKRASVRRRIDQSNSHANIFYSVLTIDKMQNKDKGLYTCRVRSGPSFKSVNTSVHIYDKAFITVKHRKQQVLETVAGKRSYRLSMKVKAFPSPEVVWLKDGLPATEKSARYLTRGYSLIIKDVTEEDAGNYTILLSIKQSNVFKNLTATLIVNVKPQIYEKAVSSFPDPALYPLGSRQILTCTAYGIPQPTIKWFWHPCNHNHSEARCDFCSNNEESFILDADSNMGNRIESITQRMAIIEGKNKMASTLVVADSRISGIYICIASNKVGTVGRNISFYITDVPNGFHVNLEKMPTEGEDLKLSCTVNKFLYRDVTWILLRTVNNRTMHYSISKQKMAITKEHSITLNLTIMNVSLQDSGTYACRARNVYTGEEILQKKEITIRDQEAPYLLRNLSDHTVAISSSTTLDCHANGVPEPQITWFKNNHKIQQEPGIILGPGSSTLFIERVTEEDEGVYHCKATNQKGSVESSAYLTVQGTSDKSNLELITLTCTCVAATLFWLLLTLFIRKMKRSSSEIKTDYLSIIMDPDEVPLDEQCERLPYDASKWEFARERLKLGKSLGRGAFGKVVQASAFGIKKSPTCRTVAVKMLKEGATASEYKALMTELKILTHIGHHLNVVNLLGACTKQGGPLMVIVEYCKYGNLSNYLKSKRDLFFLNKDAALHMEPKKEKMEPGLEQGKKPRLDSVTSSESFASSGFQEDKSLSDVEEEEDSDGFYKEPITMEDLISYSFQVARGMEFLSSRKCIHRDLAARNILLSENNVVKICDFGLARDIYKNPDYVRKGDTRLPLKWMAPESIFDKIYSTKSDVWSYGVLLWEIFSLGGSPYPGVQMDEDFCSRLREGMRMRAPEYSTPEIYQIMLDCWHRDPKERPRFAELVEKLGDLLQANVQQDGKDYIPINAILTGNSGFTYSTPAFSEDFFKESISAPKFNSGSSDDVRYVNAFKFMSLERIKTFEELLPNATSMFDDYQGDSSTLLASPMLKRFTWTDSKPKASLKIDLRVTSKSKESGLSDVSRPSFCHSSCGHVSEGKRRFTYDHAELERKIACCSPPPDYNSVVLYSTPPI
T10 sequence (Q9NSY1 whole entry, the tested form may be a part): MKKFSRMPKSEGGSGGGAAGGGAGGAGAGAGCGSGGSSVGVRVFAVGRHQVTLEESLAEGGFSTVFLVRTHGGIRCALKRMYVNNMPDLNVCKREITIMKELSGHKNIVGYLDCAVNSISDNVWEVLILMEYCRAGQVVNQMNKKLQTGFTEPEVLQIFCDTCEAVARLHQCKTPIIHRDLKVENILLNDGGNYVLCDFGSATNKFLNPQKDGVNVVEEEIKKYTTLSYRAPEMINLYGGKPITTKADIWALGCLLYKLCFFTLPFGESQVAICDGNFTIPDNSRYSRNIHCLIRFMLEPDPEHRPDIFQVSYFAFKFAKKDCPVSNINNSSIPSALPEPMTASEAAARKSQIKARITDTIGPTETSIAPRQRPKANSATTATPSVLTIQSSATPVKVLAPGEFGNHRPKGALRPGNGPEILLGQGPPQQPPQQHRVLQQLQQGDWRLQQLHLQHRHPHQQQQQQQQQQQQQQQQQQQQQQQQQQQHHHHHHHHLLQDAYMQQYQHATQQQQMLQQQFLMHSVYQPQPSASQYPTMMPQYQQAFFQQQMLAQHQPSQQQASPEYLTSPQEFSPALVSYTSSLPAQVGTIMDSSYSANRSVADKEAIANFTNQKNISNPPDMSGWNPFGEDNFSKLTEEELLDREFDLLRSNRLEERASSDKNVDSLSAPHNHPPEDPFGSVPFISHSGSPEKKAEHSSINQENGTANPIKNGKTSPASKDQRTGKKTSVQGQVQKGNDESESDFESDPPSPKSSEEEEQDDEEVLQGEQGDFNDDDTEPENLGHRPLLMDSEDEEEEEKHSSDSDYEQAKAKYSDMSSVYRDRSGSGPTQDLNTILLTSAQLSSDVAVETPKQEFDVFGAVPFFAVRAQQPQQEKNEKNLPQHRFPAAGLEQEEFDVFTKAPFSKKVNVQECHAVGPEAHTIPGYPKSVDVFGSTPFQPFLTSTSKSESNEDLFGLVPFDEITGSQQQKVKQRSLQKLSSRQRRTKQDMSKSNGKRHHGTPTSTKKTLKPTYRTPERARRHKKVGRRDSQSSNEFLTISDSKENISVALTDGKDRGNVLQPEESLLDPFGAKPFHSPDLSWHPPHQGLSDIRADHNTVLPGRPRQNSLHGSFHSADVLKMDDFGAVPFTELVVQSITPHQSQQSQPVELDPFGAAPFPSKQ
T11 sequence (Q9UPE1 whole entry, the tested form may be a part): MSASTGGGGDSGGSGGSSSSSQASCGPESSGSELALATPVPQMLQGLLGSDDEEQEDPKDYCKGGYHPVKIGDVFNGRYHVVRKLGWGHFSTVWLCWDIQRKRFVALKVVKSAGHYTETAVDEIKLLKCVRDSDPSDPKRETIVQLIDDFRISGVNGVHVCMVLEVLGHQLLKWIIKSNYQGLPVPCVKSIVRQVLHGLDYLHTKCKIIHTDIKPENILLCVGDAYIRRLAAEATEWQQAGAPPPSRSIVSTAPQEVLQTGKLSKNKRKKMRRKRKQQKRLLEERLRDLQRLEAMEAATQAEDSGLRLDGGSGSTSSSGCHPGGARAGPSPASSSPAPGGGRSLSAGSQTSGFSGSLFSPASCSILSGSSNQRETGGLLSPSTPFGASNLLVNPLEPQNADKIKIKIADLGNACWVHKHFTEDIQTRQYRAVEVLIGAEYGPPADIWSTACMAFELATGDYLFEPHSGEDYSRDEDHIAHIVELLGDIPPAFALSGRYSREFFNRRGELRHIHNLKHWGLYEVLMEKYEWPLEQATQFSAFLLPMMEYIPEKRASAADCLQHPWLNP
T5 sequence (Q13554 whole entry, the tested form may be a part): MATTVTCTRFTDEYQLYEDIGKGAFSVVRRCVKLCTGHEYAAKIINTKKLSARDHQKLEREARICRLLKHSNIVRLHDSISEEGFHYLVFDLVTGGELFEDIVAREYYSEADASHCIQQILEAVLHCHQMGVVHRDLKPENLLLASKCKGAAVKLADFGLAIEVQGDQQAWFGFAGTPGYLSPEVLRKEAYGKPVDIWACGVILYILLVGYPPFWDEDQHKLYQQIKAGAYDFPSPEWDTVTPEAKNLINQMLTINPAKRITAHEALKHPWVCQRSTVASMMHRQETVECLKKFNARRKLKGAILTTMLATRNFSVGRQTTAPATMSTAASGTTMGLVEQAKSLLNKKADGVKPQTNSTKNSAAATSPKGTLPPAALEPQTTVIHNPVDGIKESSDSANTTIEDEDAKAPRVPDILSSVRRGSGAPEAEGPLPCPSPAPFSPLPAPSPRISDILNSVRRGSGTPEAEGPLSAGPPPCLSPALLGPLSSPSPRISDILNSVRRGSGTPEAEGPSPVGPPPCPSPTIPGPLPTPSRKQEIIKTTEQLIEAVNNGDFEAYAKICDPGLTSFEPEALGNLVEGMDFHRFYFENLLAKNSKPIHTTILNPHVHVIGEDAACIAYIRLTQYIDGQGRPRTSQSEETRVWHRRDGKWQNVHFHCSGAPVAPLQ

As for `O=C(Nc1cccc(-c2c[nH]c3ncnc(N4CCOCC4)c23)c1)C1(C(=O)Nc2ccc(F)c(Cl)c2)CC1` [Compound 18], the dTm in [1] amounted to 0.43 K; in [2] it was 6.75 K; in experiment [3] it was 5.76 K; in [4] it was 1.13 K; in experiment [5] it was 2.15 K; in experiment [6], 6.34 K. The dTm in experiment [7] is listed as 9.51 K; in experiment [8], -1.54 K; in [9], 1.16 K; in experiment [10], 8.58 K; in experiment [11] it was 7.93 K; in [12], 0.59 K. For the same compound, the dTm in experiment [13] worked out at 0.45 K. In addition, the results for the “S(5K)” value in experiment [13] (setting [14]) and in [13] (setting [15]) were 0.36 and 0.360, respectively. Also, in experiment [13], the “# >5K” value stood at 36.

`CCc1ccc(NC(=O)C2(C(=O)Nc3cccc(-c4c[nH]c5ncnc(N6CCOCC6)c45)c3)CC2)cc1` [Compound 15]: the dTm in experiment [1] was determined as 0.00 K; in [2], 9.83 K; in experiment [3] it was 2.91 K; in [4] it was 0.11 K; in experiment [5] it was 1.13 K; in experiment [6] it was 3.55 K. Further, the dTm in experiment [7] was found to be 4.76 K; in experiment [8], 0.54 K; in [9], 0.33 K; in experiment [10], 4.66 K; in [11], 3.89 K; in experiment [12], 0.73 K. Moreover, in [13], the dTm is -2.47 K. Moreover, the “S(5K)” value in experiment [13] (setting [14]) came out at 0.23; in experiment [13] (setting [15]), 0.230. Besides, the “# >5K” value in [13] is 23.

For `O=C(Nc1cccc(-c2c[nH]c3ncnc(N4CCOCC4)c23)c1)c1cccn(-c2ccc(F)cc2)c1=O` [Compound 4], the dTm amounted to 4.33 K in [1]; 7.66 K in experiment [2]; 7.33 K in experiment [3]; 1.71 K in experiment [4]; 0.73 K in experiment [5]; 2.17 K in experiment [6]. Further, the dTm was 6.24 K in experiment [7]; 0.10 K in experiment [8]; -0.00745 K in experiment [9]; 3.26 K in experiment [10]; 5.16 K in [11]; -0.37 K in [12]. Further, the dTm in experiment [13] is -1.99 K. Moreover, the results for the “S(5K)” value in experiment [13] (setting [14]) and in experiment [13] (setting [15]) were 0.33 and 0.330, respectively. Besides, the “# >5K” value in [13] was 33.

For the compound `O=C(Nc1ccccc1)C1(C(=O)Nc2cccc(-c3c[nH]c4ncnc(N5CCOCC5)c34)c2)CC1` [Compound 12], the dTm was 3.09 K in experiment [1]; 3.53 K in [2]; 3.99 K in experiment [3]; 0.86 K in experiment [4]; 0.82 K in experiment [5]; 4.34 K in experiment [6]. The dTm in experiment [7] is on record as 6.15 K; in [8] it was 0.71 K; in [9] it was -0.065 K; in experiment [10] it was 7.72 K; in experiment [11], 4.78 K; in experiment [12] it was 0.29 K. In experiment [13], this compound came in with a dTm of -0.35 K. The “S(5K)” value in experiment [13] (setting [14]) is given as 0.26; in experiment [13] (setting [15]) it was 0.260. Also, the “# >5K” value in experiment [13] is 26.

Regarding `Cc1cc(F)ccc1NC(=O)C1(C(=O)Nc2cccc(-c3c[nH]c4ncnc(N5CCOCC5)c34)c2)CC1` [Compound 24], the dTm in experiment [1] was 4.10 K; in experiment [2], 3.87 K; in experiment [3], 3.91 K; in experiment [4], 0.32 K; in [5] it was 0.23 K; in experiment [6], 0.41 K. Moreover, the dTm is 1.96 K in experiment [7]; -0.26 K in experiment [8]; -0.0334 K in experiment [9]; 6.47 K in experiment [10]; 1.90 K in experiment [11]; -0.0467 K in experiment [12]. The compound also had a dTm in [13] of -0.87 K. Also, the “S(5K)” value in experiment [13] (setting [14]) is recorded as 0.12; in experiment [13] (setting [15]), 0.120. The “# >5K” value in [13] was determined as 12.

Take `O=C(Nc1cc(F)cc(Br)c1)C1(C(=O)Nc2cccc(-c3c[nH]c4ncnc(N5CCOCC5)c34)c2)CC1` [Compound 27]: the dTm in [1] was 1.63 K; in [2], 4.12 K; in [3], 4.18 K; in experiment [4] it was 0.52 K; in experiment [5], 1.75 K; in experiment [6], -0.23 K. For the same compound, the dTm in experiment [7] is given as 3.64 K; in experiment [8] it was -2.72 K; in experiment [9] it was 0.64 K; in experiment [10], 5.45 K; in experiment [11], 0.82 K; in [12] it was -0.80 K. The compound also came in with a dTm in experiment [13] of 1.43 K. The “S(5K)” value in experiment [13] (setting [14]) was determined as 0.09; in [13] (setting [15]), 0.087. Moreover, in experiment [13], the “# >5K” value is given as 9.

On to `O=C(Nc1ccc(Cl)cc1)C1(C(=O)Nc2cccc(-c3c[nH]c4ncnc(N5CCOCC5)c34)c2)CC1` [Compound 13], for which the dTm is recorded as 3.57 K in [1]; 8.33 K in experiment [2]; 5.46 K in experiment [3]; 0.67 K in experiment [4]; 1.60 K in experiment [5]; 8.77 K in experiment [6]. Also, the dTm worked out at 9.27 K in experiment [7]; 0.52 K in experiment [8]; 0.30 K in experiment [9]; 6.46 K in experiment [10]; 8.47 K in experiment [11]; 0.49 K in [12]. In experiment [13], the dTm is on record as 1.19 K. Also, the figures for the “S(5K)” value in experiment [13] (setting [14]) and in experiment [13] (setting [15]) were 0.37 and 0.370, respectively. Also, the “# >5K” value in experiment [13] was found to be 37.

(Values after PMC12136037, “Type II kinase inhibitors that target Parkinson’s disease–associated LRRK2” (Science Advances, 2025).)
